Legend:
Assay in all cases: drug sensitivity score (DSS) (DSS (dimensionless)); higher = more sensitive (stronger drug response)
OVSAHO = system: OVSAHO
Procedure, shortened: (§1)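 Cells, either patient-derived cultures or ovarian cancer cell lines given 100 ng/ml doxycycline for no less than three days to induce shRNA, went into 384-well plates at 1 000 – 1 500 per well over drugs pre-plated in five concentrations across a 10,000-fold range. The plates were held for three days at 37 °C with 5.0 % CO2. Cell viability was then taken from CellTiter-Glo luminescence on a PHERAstar FS. For each drug, a drug sensitivity score from its dose-response curve was obtained by a method described earlier.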

FIMM-PDC5 = patient-derived ovarian cancer cells; settings: genetic perturbation: none (patient-derived cell culture)
Procedure, shortened: as §1

FIMM-PDC6 = patient-derived ovarian cancer cells; settings: genetic perturbation: none (patient-derived cell culture)
Procedure, shortened: as §1

FIMM-PDC7 = patient-derived ovarian cancer cells; settings: genetic perturbation: none (patient-derived cell culture)
Procedure, shortened: as §1

FIMM-PDC1 = patient-derived ovarian cancer cells; settings: genetic perturbation: none (patient-derived cell culture)
Procedure, shortened: as §1

FIMM-PDC3 = patient-derived ovarian cancer cells; settings: genetic perturbation: none (patient-derived cell culture)
Procedure, shortened: as §1

FIMM-PDC4 = patient-derived ovarian cancer cells; settings: genetic perturbation: none (patient-derived cell culture)
Procedure, shortened: as §1

JHOS2 = system: JHOS2
Procedure, shortened: as §1

Kuramochi = system: Kuramochi
Procedure, shortened: as §1

[1] = genetic perturbation: DOX-induced PTK7 shRNA knockdown
[2] = genetic perturbation: DOX-induced control shRNA

| Structure (SMILES) | drug sensitivity score (OVSAHO; [1]) | drug sensitivity score (OVSAHO; [2]) | drug sensitivity score (FIMM-PDC5) | drug sensitivity score (FIMM-PDC6) | drug sensitivity score (FIMM-PDC7) | drug sensitivity score (FIMM-PDC1) | drug sensitivity score (FIMM-PDC3) | drug sensitivity score (FIMM-PDC4) | drug sensitivity score (JHOS2; [1]) | drug sensitivity score (JHOS2; [2]) | drug sensitivity score (Kuramochi; [1]) | drug sensitivity score (Kuramochi; [2]) |
| --- | --- | --- | --- | --- | --- | --- | --- | --- | --- | --- | --- | --- |
| NS(=O)(=O)OC[C@@H]1C[C@@H](n2ccc3c(N[C@H]4CCc5ccccc54)ncnc32)C[C@@H]1O [Pevonedistat] | 3.7 | 6.5 | 5.7 | 7.1 | 12.2 | 3.75 | 5.2 | 9.4 | 16.2 | 12.4 | 6.65 | 2.6 |
| CS(=O)(=O)N1CCN(Cc2cc3nc(-c4cccc5[nH]ncc45)nc(N4CCOCC4)c3s2)CC1 [Pictilisib] | 11.7 | 14.1 | 16.5 | 11.5 | 12.1 | 8.15 | 8.3 | 15.1 | 5.9 | 9 | 14 | 7.2 |
| CO[C@H](C(=O)[C@@H](O)[C@@H](C)O)[C@@H]1Cc2cc3cc(O[C@H]4C[C@@H](O[C@@H]5C[C@@H](O)[C@H](O)[C@@H](C)O5)[C@H](O)[C@@H](C)O4)c(C)c(O)c3c(O)c2C(=O)[C@H]1O[C@H]1C[C@@H](O[C@@H]2C[C@@H](O)[C@@H](O[C@@H]3C[C@](C)(O)[C@H](O)[C@@H](C)O3)[C@@H](C)O2)[C@H](O)[C@@H](C)O1 [Plicamycin] | 3.5 | 14.6 | 15.3 | < 0 | < 0 | 15.6 | 4.3 | 12.6 | 3.7 | 20.1 | 3.45 | 12.6 |
| C=CC(=O)N1CCC(Oc2cc3c(Nc4ccc(Cl)c(Cl)c4F)ncnc3cc2OC)CC1 [Poziotinib] | 2.6 | 0.3 | 27.2 | 21.2 | 16.1 | 3.5 | 16.4 | 22.9 | < 0 | < 0 | 0.95 | 1.4 |
| CCCCc1nc2cc(/C=C/C(=O)NO)ccc2n1CCN(CC)CC [Pracinostat] | 14.2 | 11.2 | 14.8 | 13.7 | 11.1 | 10.8 | 13.2 | 7.3 | 13.4 | 11.9 | 18 | 7.9 |
| COc1cccc(OCCCN)c1-c1cc(Nc2cnc(C#N)cn2)n[nH]1 [Prexasertib] | 17.4 | 11.1 | 24.3 | 15.4 | 14.3 | 22.6 | 27.1 | 19.2 | 23.3 | 7.3 | 22.4 | 8.8 |
| Cn1cc(CNCC2CCN(c3ncc(C(=O)NO)cn3)CC2)c2ccccc21 [Quisinostat] | 13.6 | 12 | 14.6 | 11.8 | 8.6 | 11 | 16.5 | 5.1 | 10.9 | 12.5 | 17.4 | 6.5 |
| Cc1nc(=O)c2cc(CN(C)c3ccc(C(=O)N[C@@H](CCC(=O)O)C(=O)O)s3)ccc2[nH]1 [Raltitrexed] | < 0 | 5.1 | < 0 | 1.2 | 3 | 2.7 | < 0 | < 0 | 0.1 | < 0 | 0.45 | 9.4 |
| Cn1nccc1Nc1nccc(-c2ccn([C@H](CO)c3ccc(Cl)c(F)c3)c(=O)c2)n1 [Ravoxertinib] | < 0 | 2.4 | 9.2 | 6.6 | 2.6 | 1.2 | 2.2 | 7.9 | 1.5 | 3.6 | 3.45 | < 0 |
| CN(C)Cc1ccc(S(=O)(=O)n2ccc(/C=C/C(=O)NO)c2)cc1 [Resminostat] | 9.3 | 6.9 | 10 | 8.8 | 7.2 | 6.7 | 8.7 | 4.2 | 7.8 | 7.1 | 9.8 | 4.8 |
| CO[C@H]1C[C@@H]2CC[C@@H](C)[C@@](O)(O2)C(=O)C(=O)N2CCCC[C@H]2C(=O)O[C@H]([C@H](C)C[C@@H]2CC[C@@H](OP(C)(C)=O)[C@H](OC)C2)CC(=O)[C@H](C)/C=C(\C)[C@@H](O)[C@@H](OC)C(=O)[C@H](C)C[C@H](C)/C=C/C=C/C=C/1C [Ridaforolimus] | 0.4 | 5.3 | 9.5 | 3.2 | 11.4 | 1.65 | 4.5 | 5 | < 0 | 4.1 | 2.5 | 0.7 |
| COc1cc(OC)c(/C=C/S(=O)(=O)Cc2ccc(OC)c(NCC(=O)O)c2)c(OC)c1 [Rigosertib] | 19.1 | 9.2 | 20 | 15.1 | 10.6 | 13.2 | 19 | 23.6 | 18.3 | 13 | 17.9 | 6.4 |
| C=CC(=O)Nc1cccc(Nc2nc(Nc3ccc(N4CCN(C(C)=O)CC4)cc3OC)ncc2C(F)(F)F)c1 [Rociletinib] | 9.1 | 5.1 | 10.3 | 10.3 | 10.7 | 5.2 | 7.6 | 10 | 3.6 | 2.1 | 4.75 | 4.6 |
| C/C=C1\NC(=O)[C@H]2CSSCC/C=C/[C@H](CC(=O)N[C@H](C(C)C)C(=O)N2)OC(=O)[C@H](C(C)C)NC1=O [Romidepsin] | 28.1 | 25.4 | 26.9 | 31.1 | 27.2 | 26.2 | 29.6 | 25.6 | 24.3 | 24.1 | 30.7 | 21.6 |
| CN(C)C[C@@H]1CCn2cc(c3ccccc32)C2=C(C(=O)NC2=O)c2cn(c3ccccc23)CCO1 [Ruboxistaurin] | 9.8 | 6 | 11.1 | 6.8 | 8.1 | 6.85 | 8.5 | 7.8 | 6.2 | 6.5 | 7.25 | 7 |
| CN1CCC(CNc2ccc3ncc(-c4cccc(OC(F)(F)F)c4)n3n2)CC1 [SGI-1776] | 7.9 | 7.2 | 6.9 | 6.8 | 9.1 | 5.6 | 6 | 6.8 | 6.2 | 5.9 | 5.3 | 5.7 |
| CN(CC(=O)N(Cc1ccc(C2CCCCC2)cc1)c1ccc(C(=O)O)cc1)S(=O)(=O)c1c(F)c(F)c(F)c(F)c1F [SH-4-54] | 5.2 | 5.4 | 5.1 | 7.6 | 9.2 | 4 | 6 | 7 | 4.6 | 3.7 | 6.1 | 4.7 |
| CCc1c2c(nc3ccc(O)cc13)-c1cc3c(c(=O)n1C2)COC(=O)[C@]3(O)CC [SN-38] | 21 | 16.4 | 29.7 | 28.9 | 21.3 | 23.5 | 26.6 | 19.2 | 26.1 | 22.5 | 21 | 8.6 |
| CC(C)(C)c1cnc(CSc2cnc(NC(=O)C3CCNCC3)s2)o1 [SNS-032] | 17.5 | 15.9 | 24.7 | 19.2 | 19.1 | 18.6 | 16.9 | 20 | 19.9 | 16.9 | 16.9 | 17.2 |
| Cc1cc2c(C(=O)NC[C@H](C)c3ccccc3)c(O)c(O)cc2c(O)c1-c1c(C)cc2c(C(=O)NC[C@H](C)c3ccccc3)c(O)c(O)cc2c1O [Sabutoclax] | 4.7 | 6.5 | 5.2 | 6.4 | 3.8 | 4.75 | 11.8 | 6.9 | 11.1 | 10.8 | 7.8 | 6.8 |
| CC[C@@H](C(=O)[C@@H](C)[C@@H](O)[C@H](C)[C@@H]1O[C@@H]([C@@H](CC)C(=O)O)CC[C@@H]1C)[C@H]1O[C@]2(C=C[C@@H](O)[C@]3(CC[C@@](C)([C@H]4CC[C@](O)(CC)[C@H](C)O4)O3)O2)[C@H](C)C[C@@H]1C [Salinomycin] | 29.2 | 4.8 | 18.4 | 8.1 | 14.7 | 11.6 | 18.8 | 16.8 | 24.2 | 15.5 | 19.4 | 21.6 |
| CC(C)n1nc(-c2ccc3oc(N)nc3c2)c2c(N)ncnc21 [Sapanisertib] | 14 | 11.6 | 21.2 | 16.3 | 16.3 | 7.5 | 7.6 | 15.4 | 6.9 | 9.3 | 10.1 | 10.7 |
| CNC(=O)CN1CCC(Oc2cc3c(Nc4cccc(Cl)c4F)ncnc3cc2OC)CC1 [Sapitinib] | < 0 | < 0 | 16.5 | 11.4 | 10.1 | 0.6 | 8.8 | 16.3 | < 0 | < 0 | 0.5 | < 0 |
| CN1CCN(CCOc2cc(OC3CCOCC3)c3c(Nc4c(Cl)ccc5c4OCO5)ncnc3c2)CC1 [Saracatinib] | 12.4 | 6.6 | 15.2 | 9.4 | 5.8 | 4.6 | 12 | 13.7 | 1.4 | 7.3 | 10.6 | 5.2 |
| O=C(/C=C\n1cnc(-c2cc(C(F)(F)F)cc(C(F)(F)F)c2)n1)NNc1cnccn1 [Selinexor] | 14.8 | 7.4 | 20.1 | 24.4 | 19.5 | 12.4 | 22.4 | 17.1 | 18.8 | 14.5 | 9.85 | 13.5 |

— the supplement of paper PMC9386025
